{"source": "paper PMC6915728", "about": "(Nature Communications, 2019)", "key": {"[1]": {"system": "E. coli BW25113 overexpression strains (ASKA plasmids)", "assay": "Minimum inhibitory concentration (MIC), serial broth dilution, single-gene overexpression strains vs empty-vector control", "type": "cell-based, Escherichia coli", "settings": "for Relative MIC: broth dilution, MS medium, 100 µM IPTG, 30 °C, 20-24 h, OD600, 3 replicates", "outline": "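E. coli overexpression strains grown in MS medium with chloramphenicol, induced with 100 µM IPTG for 1 h at 30 °C, then about half-million cells inoculated into 12-step AMP dilutions (typically 1.2-fold steps). OD600 read after 20–24 h at 30 °C with shaking; triplicate strains compared with empty-vector control.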"}, "[2]": {"system": "AMP-evolved E. coli lines", "assay": "Cross-resistance / collateral sensitivity: relative MIC change of 38 laboratory-evolved AMP-resistant lines vs parental strain", "type": "cell-based, Escherichia coli", "settings": "measured here", "excerpt": "Here, we extended this dataset by measuring susceptibility changes of the same evolved lines to four additional AMPs using identical protocols to represent AMPs from all four clusters (Supplementary Fig. 15a, see also Methods). Overall, the resulting dataset of susceptibility profiles provides a comprehensive map of cross-resistance and collateral sensitivity between AMPs representing various modes of action.\nTo characterize the cross-resistance of the 38 E. coli lineages we obtained relative MIC changes that are, the MIC values of the evolved lines compared to these of the parental strain, from two data sources. First, we used already measured relative MIC changes from Spohn et al. Supplementary data 4[20]. […] Second, we extended this dataset by measuring the relative MIC changes of the same evolved lines to four additional AMPs using identical protocol. […] In this way, AMPs from each cluster were represented in the dataset.\nSupplementary Figure 15. […] Relative change in MIC was determined for each evolved line by comparing its MIC to the ancestral cell line (control). […] CAP18-adaped lines were not included in the analysis because CAP18 is known as a membrane-targeting AMP in the literature. c, Cross-resistance interactions are enriched between membrane-targeting AMPs that are in the same chemical-genetic clusters (i.e. AMP pairs within C1 and within C2 clusters) (Significant difference: ** P = 0.0082 from two-sided Fisher’s exact test, n = 61 and 62 for within cluster and between clusters, respectively). […] Source data are provided as a Source Data file."}}}
{"sequence": "RFRPPIRRPPIRPPFYPPFRPPIRPPIFPPIRPPFRPPLGPFP [BAC5, Bactenecin 5, antimicrobial peptide from bovine neutrophils; cluster C4]", "values": [{"measurement": "Average relative change in MIC", "setting": "[1]; mlaD overexpression strain relative to control (wild-type+empty vector), 3 replicates each, from optical density values of serial dilution plates, AMP in µg ml-1", "value": 0.74}, {"measurement": "Relative MIC", "setting": "[1]; overexpression strain gadW, MIC of overexpression strain / MIC of empty-plasmid control", "value": 1.3}, {"measurement": "Relative MIC", "setting": "[1]; overexpression strain lptB, MIC of overexpression strain / MIC of empty-plasmid control", "value": 0.67}, {"measurement": "Relative MIC", "setting": "[1]; overexpression strain mhpA, MIC of overexpression strain / MIC of empty-plasmid control", "value": 0.79}, {"measurement": "Relative MIC", "setting": "[1]; overexpression strain mlaC, MIC of overexpression strain / MIC of empty-plasmid control", "value": 1}, {"measurement": "Relative MIC", "setting": "[1]; overexpression strain mlaD, MIC of the overexpression strain / MIC of the control strain (wild-type carrying the empty plasmid)", "value": 0.74}, {"measurement": "Relative MIC", "setting": "[1]; overexpression strain murA, MIC of overexpression strain / MIC of empty-plasmid control", "value": 0.8}, {"measurement": "Relative MIC", "setting": "[1]; overexpression strain rpoH, MIC of overexpression strain / MIC of empty-plasmid control", "value": 0.8}, {"measurement": "Relative MIC", "setting": "[1]; overexpression strain yhbJ, MIC of overexpression strain / MIC of empty-plasmid control", "value": 0.8}, {"measurement": "Relative MIC", "setting": "[1]; overexpression strain yiaJ, MIC of overexpression strain / MIC of empty-plasmid control", "value": 0.7}, {"measurement": "Relative change in MIC (MIC of the AMP-adpated line / MIC of the ancestral strain)", "setting": "[2]; AMP-adapted line CAP18_2", "value": 1}, {"measurement": "Relative change in MIC (MIC of the AMP-adpated line / MIC of the ancestral strain)", "setting": "[2]; AMP-adapted line CAP18_5", "value": 0.915}, {"measurement": "Relative change in MIC (MIC of the AMP-adpated line / MIC of the ancestral strain)", "setting": "[2]; AMP-adapted line CAP18_6", "value": 0.915}, {"measurement": "Relative change in MIC (MIC of the AMP-adpated line / MIC of the ancestral strain)", "setting": "[2]; AMP-adapted line CAP18_8", "value": 1}, {"measurement": "Relative change in MIC (MIC of the AMP-adpated line / MIC of the ancestral strain)", "setting": "[2]; AMP-adapted line CAP18_10", "value": 0.915}, {"measurement": "Relative change in MIC (MIC of the AMP-adpated line / MIC of the ancestral strain)", "setting": "[2]; AMP-adapted line HBD3_3", "value": 1}, {"measurement": "Relative change in MIC (MIC of the AMP-adpated line / MIC of the ancestral strain)", "setting": "[2]; AMP-adapted line HBD3_6", "value": 0.9167}, {"measurement": "Relative change in MIC (MIC of the AMP-adpated line / MIC of the ancestral strain)", "setting": "[2]; AMP-adapted line HBD3_8", "value": 1}, {"measurement": "Relative change in MIC (MIC of the AMP-adpated line / MIC of the ancestral strain)", "setting": "[2]; AMP-adapted line HBD3_10", "value": 1}, {"measurement": "Relative change in MIC (MIC of the AMP-adpated line / MIC of the ancestral strain)", "setting": "[2]; AMP-adapted line LL37_1", "value": 0.915}, {"measurement": "Relative change in MIC (MIC of the AMP-adpated line / MIC of the ancestral strain)", "setting": "[2]; AMP-adapted line LL37_3", "value": 1}, {"measurement": "Relative change in MIC (MIC of the AMP-adpated line / MIC of the ancestral strain)", "setting": "[2]; AMP-adapted line LL37_6", "value": 0.915}, {"measurement": "Relative change in MIC (MIC of the AMP-adpated line / MIC of the ancestral strain)", "setting": "[2]; AMP-adapted line LL37_7", "value": 1}, {"measurement": "Relative change in MIC (MIC of the AMP-adpated line / MIC of the ancestral strain)", "setting": "[2]; AMP-adapted line LL37_10", "value": 0.915}, {"measurement": "Relative change in MIC (MIC of the AMP-adpated line / MIC of the ancestral strain)", "setting": "[2]; AMP-adapted line PEX_1", "value": 1.1}, {"measurement": "Relative change in MIC (MIC of the AMP-adpated line / MIC of the ancestral strain)", "setting": "[2]; AMP-adapted line PEX_4", "value": 1.1}, {"measurement": "Relative change in MIC (MIC of the AMP-adpated line / MIC of the ancestral strain)", "setting": "[2]; AMP-adapted line PEX_5", "value": 1}, {"measurement": "Relative change in MIC (MIC of the AMP-adpated line / MIC of the ancestral strain)", "setting": "[2]; AMP-adapted line PEX_6", "value": 1.1}, {"measurement": "Relative change in MIC (MIC of the AMP-adpated line / MIC of the ancestral strain)", "setting": "[2]; AMP-adapted line PEX_7", "value": 1}, {"measurement": "Relative change in MIC (MIC of the AMP-adpated line / MIC of the ancestral strain)", "setting": "[2]; AMP-adapted line PR39_1", "value": ">4.30"}, {"measurement": "Relative change in MIC (MIC of the AMP-adpated line / MIC of the ancestral strain)", "setting": "[2]; AMP-adapted line PR39_2", "value": 2.0736}, {"measurement": "Relative change in MIC (MIC of the AMP-adpated line / MIC of the ancestral strain)", "setting": "[2]; AMP-adapted line PR39_5", "value": 4.3}, {"measurement": "Relative change in MIC (MIC of the AMP-adpated line / MIC of the ancestral strain)", "setting": "[2]; AMP-adapted line PR39_7", "value": 1.9}, {"measurement": "Relative change in MIC (MIC of the AMP-adpated line / MIC of the ancestral strain)", "setting": "[2]; AMP-adapted line PR39_10", "value": 2.986}, {"measurement": "Relative change in MIC (MIC of the AMP-adpated line / MIC of the ancestral strain)", "setting": "[2]; AMP-adapted line PROA_2", "value": 1.2}, {"measurement": "Relative change in MIC (MIC of the AMP-adpated line / MIC of the ancestral strain)", "setting": "[2]; AMP-adapted line PROA_3", "value": 1}, {"measurement": "Relative change in MIC (MIC of the AMP-adpated line / MIC of the ancestral strain)", "setting": "[2]; AMP-adapted line PROA_7", "value": 1.1}, {"measurement": "Relative change in MIC (MIC of the AMP-adpated line / MIC of the ancestral strain)", "setting": "[2]; AMP-adapted line PROA_8", "value": 1.1}, {"measurement": "Relative change in MIC (MIC of the AMP-adpated line / MIC of the ancestral strain)", "setting": "[2]; AMP-adapted line PROA_9", "value": 1.1}, {"measurement": "Relative change in MIC (MIC of the AMP-adpated line / MIC of the ancestral strain)", "setting": "[2]; AMP-adapted line PXB_2", "value": 1.32}, {"measurement": "Relative change in MIC (MIC of the AMP-adpated line / MIC of the ancestral strain)", "setting": "[2]; AMP-adapted line PXB_5", "value": 1.1}, {"measurement": "Relative change in MIC (MIC of the AMP-adpated line / MIC of the ancestral strain)", "setting": "[2]; AMP-adapted line PXB_6", "value": 1}, {"measurement": "Relative change in MIC (MIC of the AMP-adpated line / MIC of the ancestral strain)", "setting": "[2]; AMP-adapted line PXB_8", "value": 1}, {"measurement": "Relative change in MIC (MIC of the AMP-adpated line / MIC of the ancestral strain)", "setting": "[2]; AMP-adapted line PXB_10", "value": 0.915}]}
